Laboratory results reported in article PMC7022378, “Structural Analyses on the Deamidation of N-Terminal Asn in the Human N-Degron Pathway” (Biomolecules, 2020).
Substitutions are numbered along the chain they refer to.

How the values were obtained:
[1] = target: T1, NTAN1 (wild-type) (Homo sapiens, UniProt Q96AB6); test: In vitro deamidation assay quantified by LC-MS, wild-type NTAN1; type: biochemical; conditions: 200 mM NaCl, 10 mM HEPES-NaOH (pH 7.0); for Deamidation activity on NXAAR peptides: 100 μM peptide, 37 °C, 1-20 min, three independent experiments; for Deamidation with 0.16 μM NTAN1: 0.16 μM NTAN1, 37 °C
T1 construct: The gene for full-length NTAN1 was cloned into pET-21a(+); made in house; host or cells: E. coli Rosetta 2(DE3)
T1 sequence (Q96AB6 1-310): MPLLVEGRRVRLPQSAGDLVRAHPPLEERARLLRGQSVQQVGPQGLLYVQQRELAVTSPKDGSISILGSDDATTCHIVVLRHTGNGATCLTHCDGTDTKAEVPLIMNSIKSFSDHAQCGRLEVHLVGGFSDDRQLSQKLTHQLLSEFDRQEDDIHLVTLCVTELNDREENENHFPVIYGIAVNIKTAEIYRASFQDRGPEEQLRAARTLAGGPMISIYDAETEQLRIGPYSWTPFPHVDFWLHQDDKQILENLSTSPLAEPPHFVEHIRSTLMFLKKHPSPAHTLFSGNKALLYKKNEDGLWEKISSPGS
Experimental: We synthesized codon-optimized NTAN1 gene of which sequence information was provided by Georgiou et al. for protein expression in Escherichia coli. The gene for full-length NTAN1 was cloned into pET-21a(+) (Novagen, Darmstadt, Germany) between Nde1 and Xho1 restriction sites to have C-terminal hexahistidine tag. NTAN1 was overexpressed in the Rosetta 2(DE3), E. coli strain (Novagen, Darmstadt, Germany). The transformed cells were grown in Luria-Bertani media containing ampicillin at 37 °C until the optical density at 600 nm reached 0.5 and protein expression was induced by 0.5 mM isopropyl β-D-1-thiogalactopyranoside. The cells were shake-incubated for additional for 16 h at 18 °C and harvested by centrifugation at 6000 × g for 10 min (Figure S1). The harvested cells were resuspended in a buffer containing 500 mM NaCl, 20 mM Tris-HCl (pH 7.5), 35 mM imidazole, and 1 mM phenylmethylsulfonyl fluoride and subsequently lysed by sonication. Lysed cells were centrifuged at 35,000 × g for 1 h. The resultant supernatant was filtered with 0.45 μm filter device (Sartorius, Göttingen, Germany) and loaded onto a 5-mL HiTrap Chelating HP column (GE Healthcare, Chicago, IL, USA) which had been pre-charged with Ni^2+ and equilibrated with a buffer containing 500 mM NaCl, 20 mM Tris-HCl (pH 7.5), and 35 mM imidazole. After nonspecifically bound proteins were eluted, the retained proteins were eluted by addition of an increasing gradient of a buffer containing 500 mM NaCl, 20 mM Tris-HCl (pH 7.5), and 1 M imidazole. The proteins were loaded onto a HiPrep Desalting 26/10 column (GE Healthcare, Chicago, IL, USA) and eluted with a buffer containing 50 mM NaCl and 20 mM Tris-HCl (pH 7.5) The eluates were loaded onto a HiTrap 5-mL Q HP column (GE Healthcare, Chicago, IL, USA) which had been equilibrated with a buffer containing 50 mM NaCl and 20 mM Tris-HCl (pH 7.5). After nonspecifically bound proteins were eluted, the retained proteins were eluted with addition of increasing gradient of a buffer containing 1 M NaCl and 20 mM Tris-HCl (pH 7.5). Finally, the proteins were concentrated, loaded onto a HiLoad 16/600 Superdex 200 pg column (GE Healthcare, Chicago, IL, USA), and eluted with a buffer containing 200 mM NaCl and 10 mM HEPES-NaOH (pH 7.0). Purity of the protein fractions was checked by sodium dodecyl sulfate-polyacrylamide gel electrophoresis after each purification step.
Peptides with Nt-Asn which mimic potential substrates of NTAN1 were synthesized: NRA, NRAA, NRAAA, NRQVA, NRQVAA, NRQVAAA, NFAAR, NLAAR, NRAAR, NAAAR, NNAAR, NPAAR, NGAAR, and NDAAR. Non-Nt-Asn peptides, QRAAA and VRAAA, were also synthesized. NTAN1 (at concentrations of 0.5 μM, 0.16 μM, or 0.04 μM) and the peptides (at a concentration of 100 μM) were mixed and incubated at 37 °C in a buffer containing 200 mM NaCl and 10 mM HEPES-NaOH (pH 7.0). The reactants sampled at various incubation time points (of 1, 2, 5, 10, and 20 min) were heat-inactivated at 95 °C for 10 min to stop further reaction. Subsequently, the samples were centrifuged at 20,000 × g and diluted 1/50 times with double-deionized water (DW) for liquid chromatography-mass spectrometry (LC-MS) analysis. The deamidation coefficient of peptides catalyzed by NTAN1 was assessed by the slope of exponential curve drawn from the concentration of the substrate over incubation time.
The peptides were quantified by an LC-MS system (1260 Infinity/6430 Triple Quad, Agilent Technologies) equipped with a binary pump (G1312B), a thermostated column compartment (G1316C), a thermostat (G1330B), and an autosampler (G1367E). Chromatographic separation was carried out by injecting an aliquot (2 µL) of analytical sample into a Kinetex C18 column (2.6 μm, 100 Å, 100 × 4.6 mm; Phenomenex, Torrance, CA, USA) with a C18 guard column (4 × 2.0 mm; Phenomenex, Torrance, CA, USA). The mobile phase consisted of acetonitrile and DW (30:70, v/v) with 0.2% (v/v) formic acid. […]

[2] = target: T2, NTAN1 S254A mutant (human) (UniProt Q96AB6)
T2 sequence: T1 sequence (Q96AB6 1-310) with S254A

[3] = target: T3, N-terminal asparagine amidohydrolase 1 (NTAN1) C75S mutant (human, UniProt Q96AB6 1-310, C75S); test: SPR; NTAN1 C75S amine-coupled to a CM5 chip (3000 RU), Biacore T200; peptides at 1.95-62.50 μM injected for 120 s, 30 μL/min; 150 mM NaCl, 10 mM HEPES-NaOH pH 7.2, 0.1 mM TCEP, 0.001% polysorbate 20; 1:1 Langmuir model; conditions: both partners purified
T3 construct: N-terminal asparagine amidohydrolase 1 (NTAN1), human, full length, 310 residues; codon-optimized synthetic gene in pET-21a(+); catalytic Cys75 changed to Ser; C75S is not in the list of mutants in section 2.2; No step that cleaves the tag is described; source: E. coli Rosetta 2(DE3), purified as for NTAN1 (Ni2+ chelating, Q anion exchange, Superdex 200)
T3 sequence (looked up): T1 sequence (Q96AB6 1-310) with C75S

[4] = target: T3, N-terminal asparagine amidohydrolase 1 …; test: crystal structure; crystals of NTAN1 C75S soaked in reservoir solution with 10 mM synthetic peptide for 16 hr; two molecules in the asymmetric unit; conditions: both partners purified
[5] = 0.5 μM NTAN1 (Figure 2d; NNAAR also at 0.04 μM, Figure 2c)

Molecule: NFAAR [NXAAR substrate pentapeptide, second-position Phe]
- Deamidation activity on NXAAR peptides ([1]; 0.04 μM NTAN1 (Figure 2c)): most efficiently deamidated

Molecule: NRAAR [NXAAR substrate peptide, second-position Arg]
- Deamidation activity on NXAAR peptides ([1]; 0.04 μM NTAN1 (Figure 2c)): moderate deamidation activity

Molecule: NLAAR [NXAAR substrate pentapeptide, second-position Leu]
- Deamidation activity on NXAAR peptides ([1]; 0.04 μM NTAN1 (Figure 2c)): most efficiently deamidated

Molecule: NPAAR [NXAAR substrate peptide, second-position Pro]
- Deamidation activity on NXAAR peptides [1, 5]: low deamidation activities

Molecule: NGAAR [NXAAR substrate peptide, second-position Gly]
- Deamidation activity on NXAAR peptides [1, 5]: low deamidation activities

Molecule: NRQVAAA [synthesized modified Nt-Asn peptide, model substrate of NTAN1]
- Deamidation with 0.16 μM NTAN1 [1]: deamidated too rapidly

Molecule: NDAAR [NXAAR substrate peptide, second-position Asp]
- Deamidation activity on NXAAR peptides [1, 5]: low deamidation activities

Molecule: NRQVA [synthesized modified Nt-Asn peptide, model substrate of NTAN1]
- Deamidation with 0.16 μM NTAN1 [1]: deamidated too rapidly

Molecule: NRQVAA [synthesized modified Nt-Asn peptide, model substrate of NTAN1]
- Deamidation with 0.16 μM NTAN1 [1]: deamidated too rapidly

Molecule: NNAAR [NXAAR substrate peptide, second-position Asn]
- Deamidation activity on NXAAR peptides [1, 5]: low deamidation activities

B1: NRAAA peptide (peptide)
peptide: NRAAA
- in vitro deamidation of the NRAAA peptide, LC-MS, deamidation rate against wild-type NTAN1 (fold lower than wild type) [2]: 3

B2: NLAAR peptide (peptide)
peptide: NLAAR
notes: model substrate peptide with N-terminal Asn; also called NLAAR pentapeptide; source: synthetic peptide
- Kd [3]: 26.8 nM

B3: NFAAR peptide (peptide)
peptide: NFAAR
notes: model substrate peptide with N-terminal Asn; also called NFAAR pentapeptide; source: synthetic peptide
- binding result [4]: binds

B4: NAAAR peptide (peptide)
peptide: NAAAR
notes: model substrate peptide with N-terminal Asn; source: synthetic peptide
- Kd [3]: 4670 nM
